Patent US10316070B2, “Dual protected pro-coelenterazine substrates” (PROMEGA CORPORATION, priority 2016, dated 2019)

Key:
[1] = test system: thermal stable β-glucosidase; test: Glucosidase assay: light output of furimazine mono- or bis-glucoside pro-substrate with Nanoluc, with and without β-glucosidase; type: biochemical; settings: for Background RLU: without β-glucosidase, Nanoluc; for Signal to Background: β-glucosidase vs no β-glucosidase
Method: To the solution of 50 μl of furimazine mono- or bis-glucoside compound (100 μM) in NanoGlo buffer and 50 μl of NanoGlo buffer containing 1 ng/mL Nanoluc was added 11 μl of thermal stable β-glucosidase (Sigma) in PBS with final concentration of 1 Unit/ml/μM, and the light output was measured over time. The background of pro-substrate was measured under same condition without β-glucosidase.
(§1) The synthesized coelenterazine analogues (compounds of formula (I)) were evaluated for their background and signal/background ratio.

[2] = test system: alkaline phosphatase; test: Alkaline phosphatase assay: light output of furimazine mono- or bis-phosphate pro-substrate with Nanoluc, with and without alkaline phosphatase; type: biochemical; settings: for Signal to Background: alkaline phosphatase vs none; for Background RLU: without alkaline phosphatase, Nanoluc
Method: Alkaline phosphatase assays. To the solution of 50 μl furimazine mono- or bis-phosphate compound (50 μM) and 50 μL of NanoGlo buffer containing 1 ng/mL Nanoluc was added, then alkaline phosphatase (Sigma) in PBS with final concentration at 1 Unit/ml/μM was added, and the light output was measured over time. The background of pro-substrate was measured under same condition without adding alkaline phasphotase.
as §1

[3] = target: T1, Cathepsin C (Bos taurus, UniProt Q3ZCJ8); test: Cathepsin C assay: light output of furimazine mono- or bis-Gly-Phe pro-substrate with Nanoluc, with and without Cathepsin C; type: biochemical, bovine; settings: for Signal to Background: Cathepsin C vs none; for Background RLU: without Cathepsin C, Nanoluc
T1 construct: Cathepsin C (Sigma C8511 from bovine spleen); purchased Sigma C8511; host or cells: bovine spleen (tissue-derived)
T1 sequence (Q3ZCJ8 231-394 limits assumed): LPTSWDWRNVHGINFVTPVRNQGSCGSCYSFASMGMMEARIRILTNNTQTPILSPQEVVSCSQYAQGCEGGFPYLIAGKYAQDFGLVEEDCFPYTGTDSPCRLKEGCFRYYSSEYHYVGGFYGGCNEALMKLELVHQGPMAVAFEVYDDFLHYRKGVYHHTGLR
T1 sequence (Q3ZCJ8 25-134 limits assumed): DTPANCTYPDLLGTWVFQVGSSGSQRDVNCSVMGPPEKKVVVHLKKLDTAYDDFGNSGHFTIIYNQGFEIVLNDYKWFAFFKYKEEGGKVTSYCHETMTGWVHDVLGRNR
T1 sequence (Q3ZCJ8 395-463 limits assumed): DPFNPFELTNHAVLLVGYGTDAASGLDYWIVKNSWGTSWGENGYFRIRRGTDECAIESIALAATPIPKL
Method: Cathepsin C assay. To the solution of 50 μl of furimazine mono- or bis-Gly-Phe compound (50 μM) in 1:1 NanoGlo and nanopure water containing DTT 5 mM and 50 µL of 1 ng/mL Nanoluc buffer in 1:1 NanoGlo and nanopure water containing 5 mM DTT was added, then 10 μL of Cathepsin C (Sigma C8511 from bovine spleen) at final concentration of 0.1 U/well was added. The light output was measured over time. The background of pro-substrate was measured under same condition without adding Cathepsin C.
as §1

OCC1OC(Oc2ccc(COc3c(Cc4ccco4)nc4c(Cc5ccccc5)nc(-c5ccccc5)cn34)cc2)C(O)C(O)C1O [WZ-0246, β-D-glucose Benzyl Furimazine]
Background RLU ([1]; Time 0 hr): 10,028 RLU | Signal to Background ([1]; Time 0 hr): 3,235 | Background RLU ([1]; Time 0.1 hr): 10,884 RLU | Signal to Background ([1]; Time 0.1 hr): 2,915 | Background RLU ([1]; Time 0.25 hr): 12,298 RLU | Signal to Background ([1]; Time 0.25 hr): 2,426 | Background RLU ([1]; Time 0.5 hr): 13,047 RLU | Signal to Background ([1]; Time 0.5 hr): 2,193 | Background RLU ([1]; Time 1 hr): 18,529 RLU | Signal to Background ([1]; Time 1 hr): 1,172 | Background RLU ([1]; Time 1.5 hr): 20,751 RLU | Signal to Background ([1]; Time 1.5 hr): 926 | Background RLU ([1]; Time 2 hr): 24,489 RLU | Signal to Background ([1]; Time 2 hr): 627 | Background RLU ([1]; Time 3 hr): 29,692 RLU | Signal to Background ([1]; Time 3 hr): 385 | Background RLU ([1]; Time 4 hr): 33,514 RLU | Signal to Background ([1]; Time 4 hr): 264 | Background RLU ([1]; Time 5 hr): 37,181 RLU | Signal to Background ([1]; Time 5 hr): 210 | Background RLU ([1]; Time 6 hr): 40,543 RLU | Signal to Background ([1]; Time 6 hr): 157 | Background RLU ([1]; Time 16 hr): 23,092 RLU | Signal to Background ([1]; Time 16 hr): 36

OCC1OC(Oc2ccc(COc3c(Cc4ccco4)nc4c(Cc5ccccc5)nc(-c5ccc(OC6OC(CO)C(O)C(O)C6O)cc5)cn34)cc2)C(O)C(O)C1O [WZ-0262, bis-(β-D-glucose) Benzyl Furimazine]
background signal (in words) ([1]; FIG. 1, Tables 1 and 2): close to instrument noise | Background RLU ([1]; Time 0 hr): 87 RLU | Signal to Background ([1]; Time 0 hr): 340,753 | Background RLU ([1]; Time 0.1 hr): 39 RLU | Signal to Background ([1]; Time 0.1 hr): 134,646 | Background RLU ([1]; Time 0.25 hr): 32 RLU | Signal to Background ([1]; Time 0.25 hr): 73,734 | Background RLU ([1]; Time 0.5 hr): 21 RLU | Signal to Background ([1]; Time 0.5 hr): 58,191 | Background RLU ([1]; Time 1 hr): 26 RLU | Signal to Background ([1]; Time 1 hr): 21,501 | Background RLU ([1]; Time 1.5 hr): 26 RLU | Signal to Background ([1]; Time 1.5 hr): 12,822 | Background RLU ([1]; Time 2 hr): 20 RLU | Signal to Background ([1]; Time 2 hr): 11,569 | Background RLU ([1]; Time 3 hr): 14 RLU | Signal to Background ([1]; Time 3 hr): 11,041 | Background RLU ([1]; Time 4 hr): 25 RLU | Signal to Background ([1]; Time 4 hr): 5,297 | Background RLU ([1]; Time 5 hr): 26 RLU | Signal to Background ([1]; Time 5 hr): 4,585 | Background RLU ([1]; Time 6 hr): 22 RLU | Signal to Background ([1]; Time 6 hr): 5,060 | Background RLU ([1]; Time 16 hr): 26 RLU | Signal to Background ([1]; Time 16 hr): 2708 | signal-to-background ratio, fold higher than the corresponding mono-protected analogue ([1]; at the initial time point): ~100 fold | signal-to-background ratio (in words) ([1]; compared to mono-protected analogues WZ-0261 and WZ-0246): significantly higher | background, fold lower than the corresponding mono-protected analogue WZ-0246 ([1]; vs WZ-0246): ~200 fold

O=P(O)(O)Oc1ccc(COc2c(Cc3ccco3)nc3c(Cc4ccccc4)nc(-c4ccccc4)cn23)cc1 [WZ-0263, Furimazine Benzyl Phosphate]
Signal to Background ([2]; Time 5 min): 203 | Background RLU ([2]; Time 5 min): 32,464 RLU | Signal to Background ([2]; Time 11 min): 232 | Background RLU ([2]; Time 11 min): 36,745 RLU | Signal to Background ([2]; Time 21 min): 236 | Background RLU ([2]; Time 21 min): 42,522 RLU | Signal to Background ([2]; Time 31 min): 245 | Background RLU ([2]; Time 31 min): 48,399 RLU | Signal to Background ([2]; Time 42 min): 244 | Background RLU ([2]; Time 42 min): 54,309 RLU | Signal to Background ([2]; Time 62 min): 230 | Background RLU ([2]; Time 62 min): 65,661 RLU | Signal to Background ([2]; Time 93 min): 200 | Background RLU ([2]; Time 93 min): 80,929 RLU | Signal to Background ([2]; Time 123 min): 170 | Background RLU ([2]; Time 123 min): 94,825 RLU

O=P(O)(O)Oc1c(Cc2ccco2)nc2c(Cc3ccccc3)nc(-c3ccccc3)cn12 [WZ-0265, Furimazine Phosphate]
Signal to Background ([2]; Time 5 min): 3 | Background RLU ([2]; Time 5 min): 9,033,396 RLU | Signal to Background ([2]; Time 11 min): 3 | Background RLU ([2]; Time 11 min): 9,181,168 RLU | Signal to Background ([2]; Time 21 min): 3 | Background RLU ([2]; Time 21 min): 9,310,668 RLU | Signal to Background ([2]; Time 31 min): 3 | Background RLU ([2]; Time 31 min): 9,376,837 RLU | Signal to Background ([2]; Time 42 min): 2 | Background RLU ([2]; Time 42 min): 9,394,555 RLU | Signal to Background ([2]; Time 62 min): 2 | Background RLU ([2]; Time 62 min): 9,359,460 RLU | Signal to Background ([2]; Time 93 min): 2 | Background RLU ([2]; Time 93 min): 9,089,377 RLU | Signal to Background ([2]; Time 123 min): 2 | Background RLU ([2]; Time 123 min): 8,772,026 RLU

O=P(O)(O)Oc1ccc(COc2c(Cc3ccco3)nc3c(Cc4ccccc4)nc(-c4cccc(OP(=O)(O)O)c4)cn23)cc1 [WZ-0291, Furimazine Bis-Phosphate]
Signal to Background ([2]; Time 5 min): 18,907 | Background RLU ([2]; Time 5 min): 713 RLU | Signal to Background ([2]; Time 11 min): 18,699 | Background RLU ([2]; Time 11 min): 739 RLU | Signal to Background ([2]; Time 21 min): 19,076 | Background RLU ([2]; Time 21 min): 723 RLU | Signal to Background ([2]; Time 31 min): 18,846 | Background RLU ([2]; Time 31 min): 723 RLU | Signal to Background ([2]; Time 42 min): 18,568 | Background RLU ([2]; Time 42 min): 722 RLU | Signal to Background ([2]; Time 62 min): 18,861 | Background RLU ([2]; Time 62 min): 678 RLU | Signal to Background ([2]; Time 93 min): 17,014 | Background RLU ([2]; Time 93 min): 680 RLU | Signal to Background ([2]; Time 123 min): 14,664 | Background RLU ([2]; Time 123 min): 704 RLU | background (in words) ([2]; compared to mono-protected analogue WZ-0263): low | signal-to-background ratio (in words) ([2]; compared to mono-protected analogues WZ-0263 and WZ-0265): significantly higher

NCC(=O)NC(Cc1ccccc1)C(=O)Nc1ccc(COc2c(Cc3ccco3)nc3c(Cc4ccccc4)nc(-c4ccccc4)cn23)cc1 (stereo not drawn) [WZ-0294, Gly-Phe-Aminobenzyl Furimazine]
Signal to Background ([3]; Time 5 min): 151 | Background RLU ([3]; Time 5 min): 8,974 RLU | Signal to Background ([3]; Time 10 min): 163 | Background RLU ([3]; Time 10 min): 9,538 RLU | Signal to Background ([3]; Time 20 min): 180 | Background RLU ([3]; Time 20 min): 10,825 RLU | Signal to Background ([3]; Time 30 min): 197 | Background RLU ([3]; Time 30 min): 11,741 RLU | Signal to Background ([3]; Time 40 min): 210 | Background RLU ([3]; Time 40 min): 12,664 RLU | Signal to Background ([3]; Time 60 min): 232 | Background RLU ([3]; Time 60 min): 14,295 RLU | Signal to Background ([3]; Time 90 min): 255 | Background RLU ([3]; Time 90 min): 16,141 RLU | Signal to Background ([3]; Time 120 min): 275 | Background RLU ([3]; Time 120 min): 17,178 RLU | Signal to Background ([3]; Time 180 min): 273 | Background RLU ([3]; Time 180 min): 20,562 RLU | Signal to Background ([3]; Time 240 min): 259 | Background RLU ([3]; Time 240 min): 23,705 RLU | Signal to Background ([3]; Time 938 min): 142 | Background RLU ([3]; Time 938 min): 15,995 RLU
